Source: ChEMBL document CHEMBL1201862, “PubChem BioAssay data set” (2004)
Active and inactive are the calls of the source.

What was measured:
[1] = viability loss of HPDE-C7K cells – cell-based, fluorescence, HTS, primary screen (AID 431); type: functional; conditions: Homo sapiens
[2] = HPDE-C7 pancreatic duct cell viability loss – fluorescence, HTS (AID 430); type: functional, cell-based; conditions: Homo sapiens
[3] = Luminescence Cell-Based Dose Response HTS to Identify Activators of Luciferase Translation or Activity in H4 […] Cells. [Related pubchem assays: 1829 (Project Summary), 1814 (Primary HTS)]; type: functional
[4] = Luminescence Cell-Based Dose Confirmation to Identify Activators of 5'UTR Stem-Loop Driven Alpha-Synuclein mRNA Translation in H4 Neuroglioblastoma Cells. [Related pubchem assays: 1829 (Project Summary), 1814 (Primary HTS)]; type: functional
[5] = Luminescence Cell-Based Dose Response to Identify Activators of Luciferase Translation or Activity in H4-C Neuroglioblastoma Cells. [Related pubchem assays: 1829 (Project Summary), 1814 (Primary HTS)]; type: functional
[6] = Luminescence Cell-Based Dose Response to Identify Activators of 5'UTR Stem-Loop Driven Prion Protein mRNA Translation in H4-C Neuroglioblastoma Cells. [Related pubchem assays: 1829 (Project Summary), 1814 (Primary HTS)]; type: functional
H4 = assay: Luminescence Cell-Based Dose Response HTS to Identify Activators of 5'UTR Stem-Loop Driven Prion Protein mRNA Translation in H4 Neuroglioblastoma Cells. [Related pubchem assays: 1829 (Project Summary), 1814 (Primary HTS)]; type: functional; conditions: Homo sapiens
Prothrombin = Prothrombin (Homo sapiens, UniProt P00734); assay: Thrombin 1536 HTS Dose Response Confirmation. [Related pubchem assays: 1046 (Thrombin 1536 HTS; hits were confirmed in this assay)]; type: functional
[7] = toxicity toward HepG2 liver cells – cell-based, plate reader, cherry-pick, antagonist series, cytotoxicity control, dose response (AID 743416); type: functional
[8] = blockers of bursicon-stimulated LGR2 cAMP reporter – cell-based, HEK293, CRE-luciferase reporter, cherry pick, set 2, dose response (AID 743343); type: functional;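 note: transfected cells were stimulated with diluted bursicon conditioned medium after compound addition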
[9] = blockade of melanocortin 4 receptor signaling – cell-based, plate reader, cherry pick, counter-screen for LGR2 antagonist project, dose response (AID 743444); type: functional;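 note: transfected HEK 293 cells stimulated with alpha-MSH peptide; potency of inhibitors of the alpha-MSH evoked signal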
[10] = Luminescence Cell-Based Dose Retest to Confirm Inhibitors of Cancer Stem Cells. [Related pubchem assays (depositor defined):AID2717, AID2721]; type: functional; conditions: Homo sapiens
[11] = Luminescence Cell-Based Dose Confirmation HTS to Identify Activators of 5'UTR Stem-Loop Driven Alpha-Synuclein mRNA Translation in H4 Neuroglioblastoma Cells. [Related pubchem assays: 1829 (Project Summary), 1814 (Primary HTS)]; type: functional
[12] = target: T1, Microphthalmia-associated transcription factor (Homo sapiens, UniProt O75030); assay: reducers of TRPM1 reporter luminescence, concentration series – cell-based, SK-MEL-5, cherry-picked, set 3, MITF inhibitor project, dose response (AID 493073); type: functional;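 note: SK-MEL-5 melanoma cells with luciferase driven by the MITF target TRPM1 promoter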
T1 sequence (O75030 whole entry): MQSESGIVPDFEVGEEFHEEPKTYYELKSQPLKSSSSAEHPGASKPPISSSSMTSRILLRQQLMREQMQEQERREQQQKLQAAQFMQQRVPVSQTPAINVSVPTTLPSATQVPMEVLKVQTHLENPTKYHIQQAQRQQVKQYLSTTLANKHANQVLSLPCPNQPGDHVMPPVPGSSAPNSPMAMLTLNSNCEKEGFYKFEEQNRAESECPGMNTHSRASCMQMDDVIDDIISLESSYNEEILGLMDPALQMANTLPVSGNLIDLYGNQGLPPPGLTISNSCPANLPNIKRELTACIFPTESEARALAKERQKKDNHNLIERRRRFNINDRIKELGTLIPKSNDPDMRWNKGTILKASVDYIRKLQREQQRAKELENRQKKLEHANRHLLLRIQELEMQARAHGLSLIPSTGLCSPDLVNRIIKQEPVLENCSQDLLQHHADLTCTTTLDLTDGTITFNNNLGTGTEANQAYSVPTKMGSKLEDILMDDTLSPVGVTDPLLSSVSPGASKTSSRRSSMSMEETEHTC

[13] = toxicity to human HepG2 hepatoma cells – cell-based, plate reader, dry powder samples, cytotoxicity control, dose response (AID 1159569); type: functional;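 note: inhibitor potency with signal falling toward the positive control level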
[14] = growth inhibition of PfATP4-mutant resistant parasites – NITD609-resistant line, SYBR Green, dry powder, dose response (AID 1159571); type: functional, cell-based;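 note: parasites synchronized at ring stage by sorbitol before testing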
[15] = growth inhibition of yeast DHODH-expressing 3D7 parasites – SYBR Green, dry powder samples, dose response (AID 1159570); type: functional, cell-based;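 note: parasite growth measured after 72 hours of compound exposure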
[16] = Dd2 malaria parasite growth inhibition potency – SYBR Green, dry powder samples, dose response (AID 1159566); type: functional, cell-based;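 note: potency for growth inhibition with lower SYBR green DNA signal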
[17] = P. falciparum Dd2 growth inhibitors, dose response, SYBR Green, cherry-picked samples (AID 1159567); type: functional, cell-based
[18] = Dd2 parasite growth inhibition in erythrocytes – SYBR Green, dry powder samples, set 9, dose response (AID 1159568); type: functional, cell-based

With `CCCCc1ccc(Nc2nc(O)cc(CCC)n2)cc1` the EC50 [1] was 6.75 µM (active) and the EC50 [2] was 10.8 µM (active).
In the case of `Cc1[nH]c2ccccc2c1C(O)CN1CCN(c2cccc(C(F)(F)F)c2)CC1` (stereo not drawn), the EC50 [1] is reported as 6.67 µM (active) and the EC50 [2] is reported as 7.14 µM (active).
With `COCCn1c(C)cc(C(=O)COC(=O)c2ccc3ncsc3c2)c1C` the EC50 [3] was 0.155 µM (active), the EC50 [4] was 0.364 µM (active) and the EC50 [5] was 0.343 µM (active). For the same compound, the EC50 [6] was 1.09 µM (active) and the EC50 (H4) was 0.132 µM (active).
For `CC(=O)c1c(C)[nH]c(C(=O)NCCC2=CCCCC2)c1C`, the EC50 [3] was < 0.1 µM (inconclusive), the EC50 [4] was 0.468 µM (active) and the EC50 [5] was > 12 µM (not active). The EC50 [6] was 0.862 µM (active) and the EC50 (H4) was 12.3 µM (active).
In the case of `CC(Sc1nncn1C)C(=O)NCc1ccc2c(c1)OCO2` (stereo not drawn), the IC50 (Prothrombin) is reported as > 50 µM (not active).
In the case of `Cc1cc(C(=O)CSc2n[nH]c(N)n2)c(C)n1-c1ccccc1`, the EC50 [3] is reported as < 0.1 µM (active), the EC50 [4] is reported as 6.75 µM (active) and the EC50 [5] is reported as 0.687 µM (active). The EC50 [6] was 1.03 µM (active) and the EC50 (H4) was 5.58 µM (active).
With `Cc1csc(NC(=O)c2cnc3ccccc3n2)n1` the AC50 [7] was > 52 µM (inactive), the AC50 [8] was 7.51 µM (active) and the AC50 [9] was 16.9 µM (active).
With `Cc1c(N(C)C(=O)C2CCCN2S(=O)(=O)c2ccccc2)c(=O)n(-c2ccccc2)n1C` (stereo not drawn) the IC50 (Prothrombin) was > 50 µM (not active).
For `N#C/C(=C\c1ccc[nH]1)Sc1nc2ccccc2s1`, the EC50 [1] was > 20 µM (not active) and the EC50 [2] was > 20 µM (not active).
With `Cc1nn(Cc2ccc(C(=O)Nc3nccs3)cc2)c(C)c1Cl` the AC50 [10] was 0.747 µM (active) and the IC50 (Prothrombin) was > 50 µM (not active).
In the case of `CC(NC(=O)Nc1ccc2c(c1)OCO2)C1CCCO1` (stereo not drawn), the EC50 [3] is reported as 8.12 µM (active), the EC50 [4] is reported as > 12 µM (not active) and the EC50 [11] is reported as < 0.1 µM (active). For the same compound, the EC50 [5] was > 12 µM (not active), the EC50 [6] was > 12 µM (not active) and the EC50 (H4) was 33 µM (active).
For `O=C1OC(c2ccccc2)=C/C1=C/N1CCCCC1`, the EC50 [3] was 0.129 µM (inconclusive), the EC50 [4] was 0.306 µM (active) and the EC50 [11] was < 0.1 µM (active). For the same compound, the EC50 [5] was 0.352 µM (active), the EC50 [6] was 0.426 µM (active) and the EC50 (H4) was 0.142 µM (active).
For `Nc1cccc2c1C(=O)N(C(=O)c1ccco1)C2=O`, the IC50 (Prothrombin) was 8.62 µM (active).
For `COc1cc2c(cc1O)C(SC)=NC(C)(C)C2`, the EC50 [1] was 13.6 µM (active), the AC50 [12] was 11.3 µM (active) and the EC50 [2] was 14.1 µM (active).
For `CC1=C(C#N)C(=O)N(C)C(=O)/C1=N/Nc1ccc(S(N)(=O)=O)cc1`, the IC50 (Prothrombin) was > 50 µM (not active).
For `O=C(/N=C1\SCC(=O)N1c1ccccc1Cl)c1ccccc1`, the EC50 [3] was 11.1 µM (active), the EC50 [4] was 0.717 µM (active) and the EC50 [11] was < 0.1 µM (active). The EC50 [5] was > 12 µM (not active), the EC50 [6] was 1.86 µM (active) and the EC50 (H4) was 50.5 µM (active).
For `CO[C@@H]1CN(C)C(=O)c2ccc(NC(=O)c3nc4ccccc4s3)cc2OC[C@@H](C)N(Cc2ccccc2)C[C@H]1C`, the AC50 [13] was > 100 µM (inactive), the AC50 [14] was 1.08 µM (active) and the AC50 [15] was 1.75 µM (active). For the same compound, the AC50 [16] was 0.829 µM (active) and the AC50 [17] was 1.12 µM (active).
In the case of `COc1ccc(S(=O)(=O)N2CCC3(CC2)CN(Cc2ccncc2)[C@H](CO)c2[nH]c4cc(OC)ccc4c23)cc1`, the AC50 [13] is reported as 28.5 µM (active), the AC50 [14] is reported as 2.22 µM (active) and the AC50 [15] is reported as 2.14 µM (active). The AC50 [16] was 1.72 µM (active) and the AC50 [17] was 1.89 µM (active).
With `O=C(Cc1ccccc1)N1CC(=O)N2[C@H](CO)[C@H](c3ccc(C#CCc4ccccc4)cc3)[C@H]2C1` the AC50 [13] was 22.5 µM (active), the AC50 [14] was 1.18 µM (active) and the AC50 [18] was 0.354 µM (active). The AC50 [15] was 1.73 µM (active), the AC50 [16] was 0.358 µM (active) and the AC50 [17] was 0.918 µM (active).
In the case of `O=C(Nc1cccc(F)c1)N1CCCCN2[C@H](CO)[C@H](c3ccc(C#Cc4ccccc4)cc3)[C@@H]2C1`, the AC50 [13] is reported as > 100 µM (inactive), the AC50 [14] is reported as 0.0557 µM (active) and the AC50 [15] is reported as 0.0383 µM (active). For the same compound, the AC50 [16] was 0.0437 µM (active) and the AC50 [17] was < 0.3 µM (active).
In the case of `CCCC#Cc1ccc2c(c1)[C@H]1[C@H](CCN1Cc1ccccc1F)[C@@H](CO)N2`, the AC50 [13] is reported as 71.5 µM (active), the AC50 [14] is reported as 2.37 µM (active) and the AC50 [15] is reported as 5.85 µM (active). For the same compound, the AC50 [16] was 2.39 µM (active) and the AC50 [17] was 2.78 µM (active).
In the case of `COc1ccc(C(=O)n2nc(-c3ccco3)nc2N)cc1OC`, the IC50 (Prothrombin) is reported as 2.23 µM (active).
